From US11028079B2 (ConverGene LLC, priority 2015, dated 2021)

target: T1, BRD4 bromodomains (Homo sapiens, UniProt O60885); assay: BROMOscan bromodomain competition binding assay (DiscoveRx); details: Kd from 11 compound concentrations ranging from 0 to 10 μM, read-out: BROMOscan Relative Activity
T1 construct: fused on or other part: T7 phage capsid protein (phage-display fusion; the phage DNA is read out by qPCR)
Method: Bromodomain assays were conducted to measure interactions between certain compounds and bromodomains.
The assays were conducted according to BROMOscan protocol from Discover Rx. Briefly, BRD4 bromodomains expressed as a fusion capsid protein of T7 phage were bound to acetylated peptide ligand on a solid phase and competition bindings were performed. T7 phage strains displaying bromodomains were grown in parallel in 24-well blocks in an E. coli host derived from the BL21 strain. E. coli were grown to log-phase and infected with T7 phage from a frozen stock (multiplicity of infection=0.4) and incubated with shaking at 32° C. until lysis (90-150 minutes). The lysates were centrifuged (5,000×g) and filtered (0.2 μm) to remove cell debris. […] The liganded beads were blocked with excess biotin and washed with blocking buffer (SeaBlock (Pierce), 1% BSA, 0.05% Tween 20, 1 mM DTT) to remove unbound ligand and to reduce non-specific phage binding. […] Test compounds were prepared as 1000× stocks in 100% DMSO and subsequently diluted 1:10 in monoethylene glycol (MEG) to create stocks at 100× the screening concentration (resulting stock solution is 10% DMSO/90% MEG). The compounds were then diluted directly into the assays such that the final concentration of DMSO and MEG were 0.1% and 0.9%, respectively. All reactions were performed in polystyrene 96-well plates in a final volume of 0.135 ml. […] The bromodomain concentration in the eluates was measured by qPCR. Data was collected at 11 compound concentrations ranging from 0 to 10 μM. Kd values were then derived from a standard dose-response curve generated with Hill equation (Hill Slope was set to ˜1) and a non-linear least square fit with the Levenberg-Marquardt algorithm. Response=Background+Signal−Background/1+(Kd Hill Slope/Dose Hill Slope)

SMILES | Kd [µM]
Cc1noc(C)c1-c1ccc2nc(Cl)nc(NCc3cccc(Cl)c3)c2c1 [Example 1, 2-chloro-N-(3-chlorobenzyl)-6-(3,5-dimethylisoxazol-4-yl)quinazolin-4-amine] | 0.5 to 5
Cc1noc(C)c1-c1ccc2ncnc(NCc3cccc(Cl)c3)c2c1 [Example 2, N-(3-chlorobenzyl)-6-(3,5-dimethylisoxazol-4-yl)quinazolin-4-amine] | < 0.5
Cc1noc(C)c1-c1ccc2nccc(NCc3cccc(Cl)c3)c2c1 [Example 3, N-(3-chlorobenzyl)-6-(3,5-dimethylisoxazol-4-yl)quinolin-4-amine] | 0.5 to 5
Cc1cc(NCc2cccc(Cl)c2)c2cc(-c3c(C)noc3C)ccc2n1 [Example 4, N-(3-chlorobenzyl)-6-(3,5-dimethylisoxazol-4-yl)-2-methylquinolin-4-amine] | 0.5 to 5
CNc1nc(NCc2cccc(Cl)c2)c2cc(-c3c(C)noc3C)ccc2n1 [Example 5, N4-(3-chlorobenzyl)-6-(3,5-dimethylisoxazol-4-yl)-N2-methylquinazoline-2,4-diamine] | 0.5 to 5
Cc1noc(C)c1-c1ccc2nc(N3CCN(C)CC3)nc(NCc3cccc(Cl)c3)c2c1 [Example 6, N-(3-chlorobenzyl)-6-(3,5-dimethylisoxazol-4-yl)-2-(4-methylpiperazin-1-yl)quinazolin-4-amine] | < 0.5
Cc1noc(C)c1-c1ccc2nc(NC3CCN(C)CC3)nc(NCc3cccc(Cl)c3)c2c1 [Example 7, N4-(3-chlorobenzyl)-6-(3,5-dimethylisoxazol-4-yl)-N2-(1-methylpiperidin-4-yl)quinazoline-2,4-diamine] | < 0.5
COc1nc(NCc2cccc(Cl)c2)c2cc(-c3c(C)noc3C)ccc2n1 [Example 8, N-(3-chlorobenzyl)-6-(3,5-dimethylisoxazol-4-yl)-2-methoxyquinazolin-4-amine] | < 0.5
Cc1nc(NCc2cccc(Cl)c2)c2cc(-c3c(C)noc3C)ccc2n1 [Example 9, N-(3-chlorobenzyl)-6-(3,5-dimethylisoxazol-4-yl)-2-methylquinazolin-4-amine] | < 0.5
Cc1noc(C)c1-c1ccc2nc(NCCN3CCOCC3)nc(NCc3cccc(Cl)c3)c2c1 [Example 10, N4-(3-chlorobenzyl)-6-(3,5-dimethylisoxazol-4-yl)-N2-(2-morpholinoethyl)quinazoline-2,4-diamine] | < 0.5
Cc1noc(C)c1-c1ccc2nc(NCCN3CCN(C)CC3)nc(NCc3cccc(Cl)c3)c2c1 [Example 11, N4-(3-chlorobenzyl)-6-(3,5-dimethylisoxazol-4-yl)-N2-(2-(4-methylpiperazin-1-yl)ethyl)quinazoline-2,4-diamine] | < 0.5
Cc1noc(C)c1-c1ccc2nc(N3CCN(CCN(C)C)CC3)nc(NCc3cccc(Cl)c3)c2c1 [Example 12, N-(3-chlorobenzyl)-2-(4-(2-(dimethylamino)ethyl)piperazin-1-yl)-6-(3,5-dimethylisoxazol-4-yl)quinazolin-4-amine] | < 0.5
Cc1noc(C)c1-c1ccc2nc(NCCCO)nc(NCc3cccc(Cl)c3)c2c1 [Example 13, 3-((4-((3-chlorobenzyl)amino)-6-(3,5-dimethylisoxazol-4-yl)quinazolin-2-yl)amino)propan-1-ol] | < 0.5
Cc1noc(C)c1-c1ccc2nc(-c3c(C)noc3C)cc(NCc3cccc(Cl)c3)c2c1 [Example 14, N-(3-chlorobenzyl)-2,6-bis(3,5-dimethylisoxazol-4-yl)quinolin-4-amine] | 0.5 to 5
Cc1noc(C)c1-c1cc(NCc2cccc(Cl)c2)c2cc(Br)ccc2n1 [Example 15, 6-bromo-N-(3-chlorobenzyl)-2-(3,5-dimethylisoxazol-4-yl)quinolin-4-amine] | > 5
Cc1noc(C)c1-c1ccc2nc(N3CCN(CCCN(C)C)CC3)nc(NCc3cccc(Cl)c3)c2c1 [Example 16, N-(3-chlorobenzyl)-2-(4-(3-(dimethylamino)propyl)piperazin-1-yl)-6-(3,5-dimethylisoxazol-4-yl)quinazolin-4-amine] | < 0.5
Cc1noc(C)c1-c1ccc2nc(N3CCN(C(=O)C4CC4)CC3)nc(NCc3cccc(Cl)c3)c2c1 [Example 17, (4-(4-((3-chlorobenzyl)amino)-6-(3,5-dimethylisoxazol-4-yl)quinazolin-2-yl)piperazin-1-yl)(cyclopropyl)methanone] | < 0.5

SMILES | Kd [µM]
Cc1noc(C)c1-c1ccc2nc(N3CCN(C(=O)c4cnn(C)c4)CC3)nc(NCc3cccc(Cl)c3)c2c1 [Example 18, (4-(4-((3-chlorobenzyl)amino)-6-(3,5-dimethylisoxazol-4-yl)quinazolin-2-yl)piperazin-1-yl)(1-methyl-1H-pyrazol-4-yl)methanone] | < 0.5
CN(C)CCN1CCN(c2nc(NCc3cccc(Cl)c3)c3cc(Br)ccc3n2)CC1 [Example 19, 6-bromo-N-(3-chlorobenzyl)-2-(4-(2-(dimethylamino)ethyl)piperazin-1-yl)quinazolin-4-amine] | > 5
Cc1noc(C)c1-c1ccc2nc(N3CCN(CCO)CC3)nc(NCc3cccc(Cl)c3)c2c1 [Example 20, 2-(4-(4-((3-chlorobenzyl)amino)-6-(3,5-dimethylisoxazol-4-yl)quinazolin-2-yl)piperazin-1-yl)ethanol] | < 0.5
Cc1noc(C)c1-c1ccc2nc(N3CCN(CCC(C)C)CC3)nc(NCc3cccc(Cl)c3)c2c1 [Example 21, N-(3-chlorobenzyl)-6-(3,5-dimethylisoxazol-4-yl)-2-(4-isopentylpiperazin-1-yl)quinazolin-4-amine] | 0.5 to 5
Cc1noc(C)c1-c1ccc2nc(N(C)CCN(C)C)nc(NCc3cccc(Cl)c3)c2c1 [Example 22, N4-(3-chlorobenzyl)-N2-(2-(dimethylamino)ethyl)-6-(3,5-dimethylisoxazol-4-yl)-N2-methylquinazoline-2,4-diamine] | < 0.5
Cc1noc(C)c1-c1ccc2nc(N3CCC(CO)CC3)nc(NCc3cccc(Cl)c3)c2c1 [Example 23, (1-(4-((3-chlorobenzyl)amino)-6-(3,5-dimethylisoxazol-4-yl)quinazolin-2-yl)piperidin-4-yl)methanol] | 0.5 to 5
Cc1noc(C)c1-c1ccc2nc(N3CCCC(CO)C3)nc(NCc3cccc(Cl)c3)c2c1 (stereo not drawn) [Example 24, (1-(4-((3-chlorobenzyl)amino)-6-(3,5-dimethylisoxazol-4-yl)quinazolin-2-yl)piperidin-3-yl)methanol] | 0.5 to 5
Cc1noc(C)c1-c1ccc2nc(N3CCCCC3CO)nc(NCc3cccc(Cl)c3)c2c1 (stereo not drawn) [Example 25, (1-(4-((3-chlorobenzyl)amino)-6-(3,5-dimethylisoxazol-4-yl)quinazolin-2-yl)piperidin-2-yl)methanol] | 0.5 to 5
Cc1noc(C)c1-c1ccc2nc(N3CCN(CCN(C)C)CC3)cc(NCc3cccc(Cl)c3)c2c1 [Example 26, N-(3-chlorobenzyl)-2-(4-(2-(dimethylamino)ethyl)piperazin-1-yl)-6-(3,5-dimethylisoxazol-4-yl)quinolin-4-amine] | < 0.5
Cc1noc(C)c1-c1ccc2nc(NCc3cccc(Cl)c3)cc(N3CCN(CCN(C)C)CC3)c2c1 [Example 27, N-(3-chlorobenzyl)-4-(4-(2-(dimethylamino)ethyl)piperazin-1-yl)-6-(3,5-dimethylisoxazol-4-yl)quinolin-2-amine] | 0.5 to 5
Cc1noc(C)c1-c1ccc2nc(-c3cnn(CCN4CCOCC4)c3)nc(NCc3cccc(Cl)c3)c2c1 [Example 28, N-(3-chlorobenzyl)-6-(3,5-dimethylisoxazol-4-yl)-2-(1-(2-morpholinoethyl)-1H-pyrazol-4-yl)quinazolin-4-amine] | < 0.5
Cc1noc(C)c1-c1ccc2nc(N3CCN(C(=O)c4ccncc4)CC3)nc(NCc3cccc(Cl)c3)c2c1 [Example 29, (4-(4-((3-chlorobenzyl)amino)-6-(3,5-dimethylisoxazol-4-yl)quinazolin-2-yl)piperazin-1-yl)(pyridin-4-yl)methanone] | < 0.5
Cc1noc(C)c1-c1ccc2nc(N3CCC(CCO)CC3)nc(NCc3cccc(Cl)c3)c2c1 [Example 30, 2-(1-(4-((3-chlorobenzyl)amino)-6-(3,5-dimethylisoxazol-4-yl)quinazolin-2-yl)piperidin-4-yl)ethanol] | 0.5 to 5
Cc1noc(C)c1-c1ccc2nc(C3=CCNCC3)nc(NCc3cccc(Cl)c3)c2c1 [Example 31, N-(3-chlorobenzyl)-6-(3,5-dimethylisoxazol-4-yl)-2-(1,2,3,6-tetrahydropyridin-4-yl)quinazolin-4-amine] | < 0.5
Cc1noc(C)c1-c1ccc2nc(N3CCCN(CCN(C)C)CC3)nc(NCc3cccc(Cl)c3)c2c1 [Example 32, N-(3-chlorobenzyl)-2-(4-(2-(dimethylamino)ethyl)-1,4-diazepan-1-yl)-6-(3,5-dimethylisoxazol-4-yl)quinazolin-4-amine] | < 0.5
Cc1noc(C)c1-c1ccc2nc(N3CCCN(CCO)CC3)nc(NCc3cccc(Cl)c3)c2c1 [Example 33, 2-(4-(4-((3-chlorobenzyl)amino)-6-(3,5-dimethylisoxazol-4-yl)quinazolin-2-yl)-1,4-diazepan-1-yl)ethanol] | < 0.5
